Activity calls are given as the source filed them.
Assays:
[1] = A cytotoxicity screen of small molecule inhibitors of the PhoP region in Salmonella typhi identified in the primary screen. [Related pubchem assays: 1850, 1864, 1985 ]; format: functional
[2] = Luminescence Cell-Based Dose Response HTS to Identify Activators of Luciferase Translation or Activity in H4 […] Cells. [Related pubchem assays: 1829 (Project Summary), 1814 (Primary HTS)]; format: functional
[3] = Luminescence Cell-Based Dose Confirmation to Identify Activators of 5'UTR Stem-Loop Driven Alpha-Synuclein mRNA Translation in H4 Neuroglioblastoma Cells. [Related pubchem assays: 1829 (Project Summary), 1814 (Primary HTS)]; format: functional
[4] = Luminescence Cell-Based Dose Response to Identify Activators of 5'UTR Stem-Loop Driven Prion Protein mRNA Translation in H4-C Neuroglioblastoma Cells. [Related pubchem assays: 1829 (Project Summary), 1814 (Primary HTS)]; format: functional
[5] = Luminescence Cell-Based Dose Response to Identify Activators of Luciferase Translation or Activity in H4-C Neuroglioblastoma Cells. [Related pubchem assays: 1829 (Project Summary), 1814 (Primary HTS)]; format: functional
[6] = A High Throughput Confirmatory Assay used to Identify Novel Compounds that Inhibit Mycobacterium Tuberculosis in the absence of Glycerol.; format: functional
[7] = molecular target: Mucolipin-3 (Homo sapiens, UniProt Q8TDD5); test: Dose response cell-based high-throughput screening assay for agonists of the transient receptor potential channel ML3 (TRPML3). [Related pubchem assays: 1526, 1424, 1448 ]; format: functional
[8] = molecular target: Ion channel NompC (Danio rerio, UniProt Q7T1G6); test: Fluorescence counterscreen assay for TRPML3 agonists: dose response cell-based high-throughput screening assay to identify agonists of the transient receptor potential channel N1 (TRPN1). [Related pubchem assays: 1526, 1424, 1448 ]; format: functional
[9] = molecular target: Transitional endoplasmic reticulum ATPase (Homo sapiens, UniProt P55072, C522A); test: C522A mutant p97 ATPase inhibitors, dose response, counter-screen for p97 inhibitor project, biochemical, luminescence (AID 1544)
[10] = molecular target: Transitional endoplasmic reticulum ATPase (Homo sapiens, UniProt P55072); test: p97 ATPase inhibitors, dose response, biochemical (AID 1534)
[11] = molecular target: T1, Caspase-6 (Homo sapiens, UniProt P55212); test: inhibition of CASP6 peptide cleavage – biochemical, VEID-R110 fluorescence, cherry-pick, dose response (AID 720632)
T1 sequence (P55212 whole entry): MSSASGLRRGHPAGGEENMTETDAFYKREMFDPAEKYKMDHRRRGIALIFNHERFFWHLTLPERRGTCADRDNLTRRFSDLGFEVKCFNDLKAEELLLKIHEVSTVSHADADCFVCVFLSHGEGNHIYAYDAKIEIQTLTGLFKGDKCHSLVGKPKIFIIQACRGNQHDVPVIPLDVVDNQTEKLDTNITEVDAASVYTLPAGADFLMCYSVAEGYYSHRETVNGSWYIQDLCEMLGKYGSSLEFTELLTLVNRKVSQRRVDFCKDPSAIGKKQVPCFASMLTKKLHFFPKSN

[12] = molecular target: Bifunctional protein GlmU (Mycobacterium tuberculosis, UniProt P9WMN3); test: Inhibitors of Mycobacterial Glucosamine-1-phosphate acetyl transferase (GlmU). Secondary screen.; parameters: species or system Mycobacterium tuberculosis H37Rv
[13] = molecular target: T2, Carboxy-terminal domain RNA polymerase II polypeptide A small phosphatase 1 (Homo sapiens, UniProt Q9GZU7); test: CTDSP1 inhibitors, concentration-response, biochemical, absorbance readout, ultra-high-throughput screen actives (AID 540297); format: functional
T2 sequence (Q9GZU7 whole entry): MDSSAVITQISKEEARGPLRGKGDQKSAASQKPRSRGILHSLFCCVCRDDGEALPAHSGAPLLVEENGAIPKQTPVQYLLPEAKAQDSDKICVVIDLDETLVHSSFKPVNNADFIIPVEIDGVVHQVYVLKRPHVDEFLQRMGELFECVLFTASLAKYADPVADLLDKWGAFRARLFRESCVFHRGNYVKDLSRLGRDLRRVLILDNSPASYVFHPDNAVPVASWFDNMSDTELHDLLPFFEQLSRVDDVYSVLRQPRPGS

[14] = molecular target: Mitogen-activated protein kinase 10 (Homo sapiens, UniProt P53779); test: Dose response biochemical screening assay for inhibitors of c-Jun N-Terminal Kinase 3 (JNK3). [Related pubchem assays: 746 ]
[15] = Trypanosoma cruzi growth suppression in host cells – NIH3T3 host cells, beta-gal luminescence, confirmation (AID 2044); format: functional, cell-based;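 further: intracellular parasites grown in NIH/3T3 mouse fibroblasts as host cells; luminescent beta-galactosidase reporter signal from transgenic T. cruzi replicating inside host cells; inhibitors lower the luminescence signal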
[16] = NIH3T3 cell viability loss – ATP luminescence, mouse fibroblasts, counter-screen, dose response (AID 2010); format: functional, cell-based;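 further: cells exposed to compound for about 90 hours before reading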
[17] = cells
[18] = molecular target: Estrogen receptor beta (Homo sapiens, UniProt Q92731);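 further: recombinant ER-beta bound to coactivator SRC1 peptide in presence of estradiol agonist; inhibitors block coactivator peptide binding and lower the FRET signal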
[19] = molecular target: T3, Aminopeptidase N (Plasmodium falciparum FcB1/Columbia, UniProt O96935); test: malaria alanyl aminopeptidase activity blockers – biochemical, fluorogenic H-Leu-NHMec substrate, 1536-well (AID 1445); parameters: species or system Plasmodium falciparum 3D7, 3D7
T3 sequence (O96935 whole entry): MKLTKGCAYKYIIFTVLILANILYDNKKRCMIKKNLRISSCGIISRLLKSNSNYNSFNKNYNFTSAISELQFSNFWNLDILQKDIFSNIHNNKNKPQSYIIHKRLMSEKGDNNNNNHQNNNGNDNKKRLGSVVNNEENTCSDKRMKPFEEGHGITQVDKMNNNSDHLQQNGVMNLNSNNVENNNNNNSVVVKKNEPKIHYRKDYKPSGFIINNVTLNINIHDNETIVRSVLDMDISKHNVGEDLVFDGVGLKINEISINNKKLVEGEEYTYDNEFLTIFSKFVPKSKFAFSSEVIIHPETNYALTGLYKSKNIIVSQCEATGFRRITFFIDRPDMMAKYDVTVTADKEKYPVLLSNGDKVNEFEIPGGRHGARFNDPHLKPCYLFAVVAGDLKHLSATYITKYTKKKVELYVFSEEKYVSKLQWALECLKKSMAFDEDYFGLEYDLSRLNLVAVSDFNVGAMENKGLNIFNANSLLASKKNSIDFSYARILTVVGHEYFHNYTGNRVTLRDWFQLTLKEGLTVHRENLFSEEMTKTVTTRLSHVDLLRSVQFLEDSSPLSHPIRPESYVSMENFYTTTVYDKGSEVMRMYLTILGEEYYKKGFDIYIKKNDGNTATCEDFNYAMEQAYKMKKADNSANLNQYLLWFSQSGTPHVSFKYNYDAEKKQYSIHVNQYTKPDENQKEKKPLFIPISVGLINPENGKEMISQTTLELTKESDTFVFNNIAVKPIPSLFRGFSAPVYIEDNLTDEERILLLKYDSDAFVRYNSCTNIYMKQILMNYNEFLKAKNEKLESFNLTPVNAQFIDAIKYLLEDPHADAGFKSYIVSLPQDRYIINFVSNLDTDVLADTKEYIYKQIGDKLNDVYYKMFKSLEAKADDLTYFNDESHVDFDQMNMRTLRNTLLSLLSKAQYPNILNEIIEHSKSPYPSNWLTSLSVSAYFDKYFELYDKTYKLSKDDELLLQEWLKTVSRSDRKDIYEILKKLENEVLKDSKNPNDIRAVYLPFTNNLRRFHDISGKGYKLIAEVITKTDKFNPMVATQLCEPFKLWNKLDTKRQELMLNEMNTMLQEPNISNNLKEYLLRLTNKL

[20] = molecular target: Estrogen receptor (Homo sapiens, UniProt P03372);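 further: potency for inhibiting coactivator peptide recruitment to the receptor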
[21] = cells; format: functional, cell-based
[22] = molecular target: Induced myeloid leukemia cell differentiation protein Mcl-1 (Homo sapiens, UniProt Q07820); format: functional
[23] = molecular target: T4, Rac GTPase-activating protein 1 (Homo sapiens, UniProt Q9H0H5); test: blockers of MgcRacGAP-driven Rac1 GTP hydrolysis – biochemical, ADP Hunter fluorescence, primary and confirmatory, confirmation (AID 624330); format: functional
T4 sequence (Q9H0H5 whole entry): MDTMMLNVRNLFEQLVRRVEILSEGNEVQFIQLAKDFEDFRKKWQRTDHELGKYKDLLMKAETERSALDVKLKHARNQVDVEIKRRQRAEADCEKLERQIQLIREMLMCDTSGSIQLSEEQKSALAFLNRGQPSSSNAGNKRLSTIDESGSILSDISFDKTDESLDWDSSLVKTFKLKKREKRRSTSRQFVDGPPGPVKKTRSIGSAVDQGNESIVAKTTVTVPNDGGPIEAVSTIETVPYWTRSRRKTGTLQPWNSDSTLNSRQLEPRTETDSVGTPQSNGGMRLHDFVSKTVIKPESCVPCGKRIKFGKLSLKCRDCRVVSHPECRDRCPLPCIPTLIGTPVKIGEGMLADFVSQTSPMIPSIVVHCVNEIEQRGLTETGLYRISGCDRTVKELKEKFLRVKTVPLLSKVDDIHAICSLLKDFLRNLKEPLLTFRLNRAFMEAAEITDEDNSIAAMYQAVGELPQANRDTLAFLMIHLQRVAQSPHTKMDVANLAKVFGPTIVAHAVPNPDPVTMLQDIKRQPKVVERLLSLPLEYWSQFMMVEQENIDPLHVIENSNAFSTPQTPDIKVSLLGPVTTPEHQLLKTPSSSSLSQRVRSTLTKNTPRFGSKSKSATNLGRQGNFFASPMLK

[24] = decrease of insulin promoter-GFP reporter – imaging, high-content screening, mouse beta cells (AID 1628); format: functional; conditions: MIN6
[25] = molecular target: T5, Trace amine-associated receptor 1 (Homo sapiens, UniProt Q96RJ0); test: Counterscreen for agonists of the human trace amine associated receptor 1 (hTAAR1): Fluorescence-based cell-based high throughput dose response assay to identify hTAAR1 agonist that also desensitize TAAR1 receptor response.; format: functional
T5 sequence (Q96RJ0 whole entry): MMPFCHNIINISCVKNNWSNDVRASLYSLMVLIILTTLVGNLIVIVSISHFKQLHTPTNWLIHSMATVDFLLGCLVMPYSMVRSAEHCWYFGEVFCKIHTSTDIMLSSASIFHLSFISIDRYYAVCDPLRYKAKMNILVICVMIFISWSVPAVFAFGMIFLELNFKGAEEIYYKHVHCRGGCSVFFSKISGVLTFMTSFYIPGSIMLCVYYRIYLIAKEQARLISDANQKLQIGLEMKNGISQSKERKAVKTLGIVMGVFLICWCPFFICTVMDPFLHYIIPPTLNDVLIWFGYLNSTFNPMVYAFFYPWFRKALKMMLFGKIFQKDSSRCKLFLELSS

[26] = cells; format: functional, cell-based; remark: listed apart in the source
[27] = MIN6 cell viability loss – mouse insulinoma, cytotoxicity control, dose response (AID 2122); format: functional;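 further: confirmatory high-throughput counterscreen run to flag cytotoxic compounds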
[28] = viability loss in HeLa cells – cytotoxicity control for MgcRacGAP inhibitor project, dose response (AID 624300); format: functional
[29] = NIH-3T3 fibroblast cytotoxicity, dose response, cytotoxicity control, cell-based, fluorescence, Alamar Blue, secondary assay (AID 2327); format: functional;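 further: NIH-3T3 mouse fibroblasts cultured with fluconazole at 8 µg/mL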
[30] = molecular target: T5, Trace amine-associated receptor 1; test: Fluorescence-based cell-based high throughput dose response assay to identify agonists of the human trace amine associated receptor 1 (TAAR1).; format: functional

Sequence of Transitional endoplasmic reticulum ATPase (Homo sapiens, UniProt P55072, C522A) (P55072 2-806 C522A limits assumed): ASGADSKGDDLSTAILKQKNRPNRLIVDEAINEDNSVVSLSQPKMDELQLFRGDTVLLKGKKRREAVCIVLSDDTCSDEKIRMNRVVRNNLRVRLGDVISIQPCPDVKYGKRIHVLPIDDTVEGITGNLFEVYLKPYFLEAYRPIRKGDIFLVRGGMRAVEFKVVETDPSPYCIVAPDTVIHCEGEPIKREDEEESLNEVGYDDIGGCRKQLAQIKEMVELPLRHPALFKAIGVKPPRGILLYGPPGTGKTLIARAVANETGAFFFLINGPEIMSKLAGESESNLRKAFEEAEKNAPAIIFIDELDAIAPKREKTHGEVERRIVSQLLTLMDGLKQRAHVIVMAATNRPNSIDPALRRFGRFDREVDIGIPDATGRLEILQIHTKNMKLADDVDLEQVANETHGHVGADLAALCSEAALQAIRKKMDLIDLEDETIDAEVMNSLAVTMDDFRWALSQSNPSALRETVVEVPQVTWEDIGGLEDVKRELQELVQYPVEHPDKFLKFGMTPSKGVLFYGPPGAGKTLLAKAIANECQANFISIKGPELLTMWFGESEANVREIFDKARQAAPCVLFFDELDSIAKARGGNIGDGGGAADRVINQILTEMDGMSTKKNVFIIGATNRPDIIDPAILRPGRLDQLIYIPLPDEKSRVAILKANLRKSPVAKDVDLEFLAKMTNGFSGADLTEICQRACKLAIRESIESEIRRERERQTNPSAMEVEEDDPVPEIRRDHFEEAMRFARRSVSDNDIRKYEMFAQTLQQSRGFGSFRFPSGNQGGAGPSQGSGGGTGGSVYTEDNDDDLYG
Sequence of Transitional endoplasmic reticulum ATPase (Homo sapiens, UniProt P55072) (P55072 whole entry): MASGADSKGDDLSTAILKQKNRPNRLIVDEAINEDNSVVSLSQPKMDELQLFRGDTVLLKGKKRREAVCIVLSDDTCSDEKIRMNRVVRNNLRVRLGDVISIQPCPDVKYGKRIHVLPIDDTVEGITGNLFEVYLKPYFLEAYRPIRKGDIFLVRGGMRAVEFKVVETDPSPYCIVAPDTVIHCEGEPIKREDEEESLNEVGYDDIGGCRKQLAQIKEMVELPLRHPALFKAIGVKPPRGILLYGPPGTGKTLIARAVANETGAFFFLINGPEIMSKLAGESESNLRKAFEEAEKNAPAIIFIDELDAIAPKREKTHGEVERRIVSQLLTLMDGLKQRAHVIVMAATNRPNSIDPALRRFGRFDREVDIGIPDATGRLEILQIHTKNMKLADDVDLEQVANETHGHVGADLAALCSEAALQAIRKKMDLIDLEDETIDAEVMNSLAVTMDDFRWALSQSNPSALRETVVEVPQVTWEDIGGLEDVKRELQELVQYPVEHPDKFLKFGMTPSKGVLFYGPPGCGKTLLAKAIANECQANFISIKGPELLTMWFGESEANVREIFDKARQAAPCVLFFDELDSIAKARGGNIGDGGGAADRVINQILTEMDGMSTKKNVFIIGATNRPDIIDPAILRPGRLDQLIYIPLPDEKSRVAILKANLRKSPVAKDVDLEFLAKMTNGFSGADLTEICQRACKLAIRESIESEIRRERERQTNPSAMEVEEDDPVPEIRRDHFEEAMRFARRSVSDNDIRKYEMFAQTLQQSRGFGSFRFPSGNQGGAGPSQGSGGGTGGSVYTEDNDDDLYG
Sequence of Ion channel NompC (Q7T1G6 whole entry): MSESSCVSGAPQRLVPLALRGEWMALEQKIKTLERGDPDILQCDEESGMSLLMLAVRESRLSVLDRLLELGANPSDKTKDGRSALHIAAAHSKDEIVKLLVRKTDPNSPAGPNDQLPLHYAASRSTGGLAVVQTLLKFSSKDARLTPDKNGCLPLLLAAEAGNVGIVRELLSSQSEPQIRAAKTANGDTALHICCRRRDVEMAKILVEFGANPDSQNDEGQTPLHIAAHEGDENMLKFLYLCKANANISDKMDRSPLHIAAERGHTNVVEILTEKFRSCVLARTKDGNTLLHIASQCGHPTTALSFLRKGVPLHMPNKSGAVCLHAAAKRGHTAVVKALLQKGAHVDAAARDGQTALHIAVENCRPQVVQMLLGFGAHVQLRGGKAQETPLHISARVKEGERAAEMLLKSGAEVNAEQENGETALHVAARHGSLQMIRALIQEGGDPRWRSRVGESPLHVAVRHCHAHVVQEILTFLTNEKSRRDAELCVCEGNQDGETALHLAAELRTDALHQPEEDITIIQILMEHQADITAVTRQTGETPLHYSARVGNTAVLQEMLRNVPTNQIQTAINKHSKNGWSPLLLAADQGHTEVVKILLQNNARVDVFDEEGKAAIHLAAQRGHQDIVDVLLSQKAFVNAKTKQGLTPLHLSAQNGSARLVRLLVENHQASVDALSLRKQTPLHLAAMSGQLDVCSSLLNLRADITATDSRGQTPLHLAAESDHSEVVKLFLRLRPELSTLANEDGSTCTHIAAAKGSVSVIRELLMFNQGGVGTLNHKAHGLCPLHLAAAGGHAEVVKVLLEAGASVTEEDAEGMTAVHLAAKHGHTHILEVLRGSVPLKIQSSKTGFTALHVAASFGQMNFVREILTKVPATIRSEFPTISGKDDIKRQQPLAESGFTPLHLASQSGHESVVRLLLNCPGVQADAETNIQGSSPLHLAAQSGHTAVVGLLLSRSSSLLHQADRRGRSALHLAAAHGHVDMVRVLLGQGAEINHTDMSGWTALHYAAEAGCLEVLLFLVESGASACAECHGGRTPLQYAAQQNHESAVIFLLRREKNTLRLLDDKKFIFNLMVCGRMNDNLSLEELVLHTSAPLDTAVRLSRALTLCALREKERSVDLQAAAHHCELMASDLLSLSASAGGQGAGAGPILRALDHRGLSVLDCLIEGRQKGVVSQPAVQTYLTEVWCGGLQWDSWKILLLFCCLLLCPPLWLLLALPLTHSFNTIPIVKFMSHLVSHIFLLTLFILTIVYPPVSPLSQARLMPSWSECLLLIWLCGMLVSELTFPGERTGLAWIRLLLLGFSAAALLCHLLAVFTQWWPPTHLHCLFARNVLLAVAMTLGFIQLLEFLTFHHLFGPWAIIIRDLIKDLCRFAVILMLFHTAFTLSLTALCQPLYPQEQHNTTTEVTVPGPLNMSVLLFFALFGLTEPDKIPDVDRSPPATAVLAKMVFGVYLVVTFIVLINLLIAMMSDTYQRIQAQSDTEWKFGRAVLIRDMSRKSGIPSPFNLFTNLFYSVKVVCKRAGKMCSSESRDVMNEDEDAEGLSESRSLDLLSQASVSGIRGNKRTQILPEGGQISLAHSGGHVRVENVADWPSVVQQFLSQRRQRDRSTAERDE
Sequence of Mucolipin-3 (Q8TDD5 whole entry): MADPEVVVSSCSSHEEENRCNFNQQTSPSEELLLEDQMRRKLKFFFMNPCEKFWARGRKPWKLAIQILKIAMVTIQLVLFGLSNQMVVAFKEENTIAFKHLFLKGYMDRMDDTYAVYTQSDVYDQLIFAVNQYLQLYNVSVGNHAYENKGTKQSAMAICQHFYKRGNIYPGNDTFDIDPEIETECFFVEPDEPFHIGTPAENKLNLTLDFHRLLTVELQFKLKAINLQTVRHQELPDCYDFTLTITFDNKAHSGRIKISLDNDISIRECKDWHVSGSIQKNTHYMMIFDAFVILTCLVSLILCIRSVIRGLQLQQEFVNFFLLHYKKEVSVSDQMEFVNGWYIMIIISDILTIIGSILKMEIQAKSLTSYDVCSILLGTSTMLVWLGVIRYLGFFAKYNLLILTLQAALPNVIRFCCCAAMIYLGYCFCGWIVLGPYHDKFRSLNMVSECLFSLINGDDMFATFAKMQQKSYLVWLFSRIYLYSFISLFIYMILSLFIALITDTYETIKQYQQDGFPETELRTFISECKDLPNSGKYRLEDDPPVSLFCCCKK
Sequence of Induced myeloid leukemia cell differentiation protein Mcl-1 (Q07820 whole entry): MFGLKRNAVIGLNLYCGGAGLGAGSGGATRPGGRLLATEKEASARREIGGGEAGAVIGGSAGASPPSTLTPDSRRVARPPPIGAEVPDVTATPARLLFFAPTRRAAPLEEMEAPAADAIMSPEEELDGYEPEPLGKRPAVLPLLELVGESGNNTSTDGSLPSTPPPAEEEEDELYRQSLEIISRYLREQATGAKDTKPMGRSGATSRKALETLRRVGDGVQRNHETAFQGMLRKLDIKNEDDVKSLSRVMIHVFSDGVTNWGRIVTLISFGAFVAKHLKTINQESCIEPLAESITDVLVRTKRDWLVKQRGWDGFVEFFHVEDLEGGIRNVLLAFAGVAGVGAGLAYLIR
Sequence of Mitogen-activated protein kinase 10 (P53779 whole entry): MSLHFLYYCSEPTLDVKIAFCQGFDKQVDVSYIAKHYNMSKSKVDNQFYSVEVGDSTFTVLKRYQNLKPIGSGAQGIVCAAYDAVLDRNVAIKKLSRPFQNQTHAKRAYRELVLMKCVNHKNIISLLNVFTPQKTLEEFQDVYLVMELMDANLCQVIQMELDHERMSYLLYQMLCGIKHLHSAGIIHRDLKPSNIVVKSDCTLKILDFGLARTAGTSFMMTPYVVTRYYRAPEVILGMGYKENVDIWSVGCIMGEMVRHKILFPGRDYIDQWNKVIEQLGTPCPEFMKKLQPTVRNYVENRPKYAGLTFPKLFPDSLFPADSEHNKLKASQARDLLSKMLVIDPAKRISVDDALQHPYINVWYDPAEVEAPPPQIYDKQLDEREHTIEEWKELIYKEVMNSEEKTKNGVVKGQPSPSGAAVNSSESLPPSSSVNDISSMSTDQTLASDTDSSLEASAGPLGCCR

## COc1ccc(-c2cnc(NCc3cc4c(cc3[N+](=O)[O-])OCO4)n2C)cc1
[1]
  EC50: > 50 µM (active)

## COc1ccc(-c2ccc(-c3nnn(CC(C)=O)n3)cc2)cc1
[2]
  EC50: < 0.1 µM (inconclusive)
[3]
  EC50: 0.364 µM (active)
[4]
  EC50: 0.521 µM (active)
[5]
  EC50: 0.257 µM (active)

## Cc1ccc(NC(=O)c2sccc2-n2cccc2)c(C)c1
[6]
  IC50: > 100 µM (active)

## COc1cc(S(=O)(=O)N2CCCCCC2)ccc1Cl
[7]
  EC50: 1.9 µM (active)
[8]
  EC50: > 29.9 µM (not active)

## CSC1=NSC2=NC(=O)/C(=C\c3c(C)[nH]c4ccccc34)C(=N)N12
[9]
  IC50: > 50 µM (not active)
[10]
  IC50: 21.7 µM (not active)

## CCN(CC)C(=O)CC1(c2ccccc2OC)CCOC(C(C)C)C1 (stereo unspecified)
[7]
  EC50: 6.96 µM (active)
[8]
  EC50: > 29.9 µM (not active)

## O=C(O)c1ccc(N2C(=O)c3cccc4c(C(=O)O)ccc(c34)C2=O)cc1
[11]
  AC50: 7.17 µM (active)
[12]
  IC50: 98.9 µM (active)
[13]
  IC50: 3.53 µM (active)

## O=C(CCn1cnc2ccccc2c1=O)Nc1ccc(S(=O)(=O)N2CCCC2)cc1
[14]
  IC50: 38.2 µM (not active)

## Cc1ccc2c(CN3CCN(CCO)CC3)cc(=O)oc2c1C
[15]
  EC50: < 0.1 µM (active)
[16]
  EC50: > 60 µM (not active)
[17]
  EC50: 0.019 µM (active)

## COc1ccc(N2CC(C(=O)O)CC2=O)cc1 (stereo unspecified)
[18]
  IC50: > 50 µM (not active)

## O=C(N/N=C/c1c(Cl)nc2ccccn2c1=O)c1cccnc1
[1]
  EC50: > 50 µM (active)

## O=C1CC(c2ccco2)CC(O)=C1/C=N/c1cc(Cl)ccc1O (stereo unspecified)
[19]
  IC50: 5.58 µM (active)
[20]
  IC50: 43.8 µM (not active)

## Oc1ccc(/C=N/Nc2ccnc3cc(Cl)ccc23)cc1O
[21]
  EC50: > 29.9 µM (inactive)
[22]
  IC50: 4.73 µM (active)
[23]
  IC50: 30 µM (active)
[9]
  IC50: > 50 µM (not active)
[11]
  AC50: 1.61 µM (active)
[10]
  IC50: 36.5 µM (not active)
[24]
  IC50: 3.02 µM (active)
[25]
  IC50: 2.47 µM (active)
[26]
  IC50: > 29.9 µM (inactive)
[27]
  IC50: 6.19 µM (active)
[28]
  CC50: 43.5 µM (active)
[29]
  EC50: 7.32 µM (active)
[30]
  EC50: 0.498 µM (active)

## CSc1nsc(N/N=C/c2ccc3c(c2)OCO3)c1C#N
[2]
  EC50: < 0.1 µM (inconclusive)
[3]
  EC50: 0.415 µM (active)
[4]
  EC50: 0.314 µM (active)
[5]
  EC50: 0.303 µM (active)

## O=S1(=O)CCC(/N=C/c2ccc(-c3ccc(Cl)cc3)o2)C1 (stereo unspecified)
[6]
  IC50: > 100 µM (active)

Reference: ChEMBL document CHEMBL1201862, “PubChem BioAssay data set” (2004)
